Data as given in ChEMBL document CHEMBL3739399, “Discovery of Indazole Derivatives as a Novel Class of Bacterial Gyrase B Inhibitors” (ACS Med Chem Lett, 2015).
In brackets after ≈: the same amount, converted by molar mass.

Key:
[1] = test system: Staphylococcus aureus; experiment: Antibacterial activity against methicillin and ciprofloxacin-resistant Staphylococcus aureus 1721 for 18 to 20 hrs by broth microdilution method; format: functional
[2] = Clearance in mouse at 2 mg/kg, iv by LC-MS/MS analysis; format: ADME, organism-based; settings: in vivo
[3] = test system: Enterococcus faecium; experiment: Antibacterial activity against Enterococcus faecium for 18 to 20 hrs by broth microdilution method; format: functional
[4] = Inhibition of Staphylococcus aureus topoisomerase 4 by fluorescence analysis
[5] = test system: Staphylococcus aureus; experiment: Antibacterial activity against Staphylococcus aureus 1118 infected in sc and iv dosed mouse assessed as septicemia compound administered 1 hr post-infection twice for 1 day measured for 7 days; format: functional; settings: read-out: PD50
[6] = test system: Staphylococcus aureus; experiment: Antibacterial activity against methicillin-resistant Staphylococcus aureus 1118 for 18 to 20 hrs by broth microdilution method; format: functional
[7] = Half-life in mouse at 2 mg/kg, iv by LC-MS/MS analysis; format: ADME, organism-based; settings: in vivo
[8] = target: DNA gyrase subunit B (Staphylococcus aureus, UniProt P0A0K8); experiment: Inhibition of Staphylococcus aureus Gyrase B ATPase activity by fluorescence analysis
[9] = test system: Streptococcus pneumoniae; experiment: Antibacterial activity against Streptococcus pneumoniae for 18 to 24 hrs by broth microdilution method; format: functional
[10] = test system: Mus musculus; experiment: Dose-normalized AUC in mouse at 2 mg/kg, iv by LC-MS/MS analysis; format: ADME, organism-based; settings: in vivo
[11] = Log D of compound at pH 7.4; settings: buffer
[12] = Volume of distribution at steady state in mouse at 2 mg/kg, iv by LC-MS/MS analysis; format: ADME, organism-based; settings: in vivo, read-out: Vdss
[13] = test system: Streptococcus pneumoniae; experiment: Antibacterial activity against Streptococcus pneumoniae 402 infected in sc dosed mouse assessed as reduction in 3 log CFU in lung compound administered as BID for 1 day measured 24 hrs after last dose; format: functional
[14] = test system: Staphylococcus aureus; experiment: Antibacterial activity against methicillin-sensitive Staphylococcus aureus 42 for 18 to 20 hrs by broth microdilution method; format: functional
[15] = test system: Streptococcus pneumoniae; experiment: Antibacterial activity against Streptococcus pneumoniae 402 infected in sc dosed mouse assessed as reduction in 2 log CFU in lung compound administered as BID for 1 day measured 24 hrs after last dose; format: functional
[16] = test system: Enterococcus faecalis; experiment: Antibacterial activity against Enterococcus faecalis for 18 to 20 hrs by broth microdilution method; format: functional

Sequence of DNA gyrase subunit B (P0A0K8 whole entry): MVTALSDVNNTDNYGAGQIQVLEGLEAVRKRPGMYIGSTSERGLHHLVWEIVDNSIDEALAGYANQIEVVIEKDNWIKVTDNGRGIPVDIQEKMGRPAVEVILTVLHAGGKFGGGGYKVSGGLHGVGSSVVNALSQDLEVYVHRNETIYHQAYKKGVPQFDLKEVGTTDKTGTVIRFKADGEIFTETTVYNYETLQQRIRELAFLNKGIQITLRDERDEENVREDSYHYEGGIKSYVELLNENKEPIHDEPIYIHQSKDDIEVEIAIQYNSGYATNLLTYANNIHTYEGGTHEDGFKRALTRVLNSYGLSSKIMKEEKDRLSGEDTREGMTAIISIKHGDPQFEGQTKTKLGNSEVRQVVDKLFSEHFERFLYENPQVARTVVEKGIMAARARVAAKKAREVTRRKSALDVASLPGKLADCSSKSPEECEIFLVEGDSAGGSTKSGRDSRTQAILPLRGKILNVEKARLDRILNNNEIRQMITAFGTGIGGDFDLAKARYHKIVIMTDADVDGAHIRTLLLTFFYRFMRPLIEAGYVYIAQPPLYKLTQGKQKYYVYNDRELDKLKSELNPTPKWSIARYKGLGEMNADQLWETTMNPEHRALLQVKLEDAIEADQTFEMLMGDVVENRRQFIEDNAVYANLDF

SMILES	MIC [1] [µg/mL]	clearance [2] [mL/min/kg]	MIC [3] [µg/mL]	IC50 [4] [nM]	ED50 [5] [mg/kg]	MIC [6] [µg/mL]	half-life [7] [h]	IC50 [8] [nM]	MIC [9] [µg/mL]	AUC/dose [10] [µg·h/mL/mg/kg]	logD [11]	Vd [12] [L/kg]	ED [13] [mg/kg]	MIC [14] [µg/mL]	ED [15] [mg/kg]	MIC [16] [µg/mL]
CCCc1cccc2c(-c3cnc(-c4ccc(C(=O)O)nc4)s3)n[nH]c12	0.06 (≈ 0.165 µM)	105	0.06 (≈ 0.165 µM)	56	1	0.06 (≈ 0.165 µM)	2.1	10	0.06 (≈ 0.165 µM)	0.159	1.7	3.47	>25	0.06 (≈ 0.165 µM)	>25	0.03 (≈ 0.0823 µM)
CCCc1cccc2c(-c3cnc(-c4cnc(C(=O)O)c(OC)c4)s3)n[nH]c12	> 8		4 (≈ 10.1 µM)	115		1 (≈ 2.54 µM)		14	1 (≈ 2.54 µM)					1 (≈ 2.54 µM)		2 (≈ 5.07 µM)
C=CCc1cccc2c(-c3cnc(-c4ccc(C(=O)O)nc4)s3)n[nH]c12	0.06 (≈ 0.166 µM)		0.125 (≈ 0.345 µM)			0.03 (≈ 0.0828 µM)		9	0.25 (≈ 0.69 µM)					0.03 (≈ 0.0828 µM)		0.125 (≈ 0.345 µM)
CCCc1cccc2c(-c3cnc(-c4ccc(CC(=O)O)nc4)s3)n[nH]c12	0.25 (≈ 0.661 µM)		4 (≈ 10.6 µM)	434		0.25 (≈ 0.661 µM)		25	0.5 (≈ 1.32 µM)					0.25 (≈ 0.661 µM)		0.5 (≈ 1.32 µM)
CCCn1c(=O)ccc2c(-c3cnc(-c4ccc(C(=O)O)nc4)s3)n[nH]c21				56				< 8	0.06 (≈ 0.157 µM)		0.9			> 32		
CCCc1cccc2c(-c3cnc(-c4cnc(C(=O)O)cc4C)s3)n[nH]c12	0.03 (≈ 0.0793 µM)		0.013 (≈ 0.0344 µM)	60		0.02 (≈ 0.0528 µM)		12	0.125 (≈ 0.33 µM)					0.02 (≈ 0.0528 µM)		0.06 (≈ 0.159 µM)
CCCc1cccc2c(-c3cnc(-c4ccc(C(=O)O)c(=O)[nH]4)s3)n[nH]c12	> 8		> 8			> 8		168	> 8					> 8		> 8
CCCOc1nccc2c(-c3cnc(-c4cnc(C(=O)O)cc4C)s3)n[nH]c12	8 (≈ 20.2 µM)		8 (≈ 20.2 µM)			8 (≈ 20.2 µM)		52	0.125 (≈ 0.316 µM)					8 (≈ 20.2 µM)		4 (≈ 10.1 µM)
CCCc1c(O)ccc2c(-c3cnc(-c4cnc(C(=O)O)cc4C)s3)n[nH]c12	0.125 (≈ 0.317 µM)		0.25 (≈ 0.634 µM)			0.125 (≈ 0.317 µM)		8	0.06 (≈ 0.152 µM)					0.125 (≈ 0.317 µM)		0.06 (≈ 0.152 µM)
O=C(O)c1ccc(-c2ncc(-c3n[nH]c4c(CC5CC5)cccc34)s2)cn1	0.1 (≈ 0.266 µM)		4 (≈ 10.6 µM)			0.05 (≈ 0.133 µM)		13	0.5 (≈ 1.33 µM)					0.05 (≈ 0.133 µM)		0.125 (≈ 0.332 µM)
CCCOc1nccc2c(-c3cnc(-c4ccc(COP(=O)([O-])[O-])nc4)s3)n[nH]c12.[Na+].[Na+]	> 8		8			8		< 8	1					8		> 8
CCCc1c(O)ccc2c(-c3cnc(-c4ccc(C(=O)O)c(F)c4)s3)n[nH]c12	0.25 (≈ 0.629 µM)		0.02 (≈ 0.0503 µM)			0.25 (≈ 0.629 µM)		11	0.06 (≈ 0.151 µM)					0.125 (≈ 0.315 µM)		0.02 (≈ 0.0503 µM)
CCCc1cccc2c(-c3cnc(-c4ccc(C(=O)O)cn4)s3)n[nH]c12	> 8		4 (≈ 11 µM)	9900		> 8		49	8 (≈ 22 µM)					8 (≈ 22 µM)		8 (≈ 22 µM)
CCCc1cccc2c(-c3cnc(-c4ccc(C(=O)O)c(F)c4)s3)n[nH]c12	0.125 (≈ 0.328 µM)	42	0.06 (≈ 0.157 µM)	1300		0.125 (≈ 0.328 µM)	2	< 8	0.25 (≈ 0.655 µM)	0.397		1.7	97.6	0.125 (≈ 0.328 µM)	63	0.06 (≈ 0.157 µM)
COc1c(N2C[C@@H]3CCCN[C@@H]3C2)c(F)cc2c(=O)c(C(=O)O)cn(C3CC3)c12 [MOXIFLOXACIN]									0.06 (≈ 0.149 µM)				50.8		28.6	
CO[C@@H]1[C@@H](OC(N)=O)[C@@H](O)[C@H](Oc2ccc3c(O)c(NC(=O)c4ccc(O)c(CC=C(C)C)c4)c(=O)oc3c2C)OC1(C)C [NOVOBIOCIN]					10	0.125 (≈ 0.204 µM)			2 (≈ 3.26 µM)				>100		>100	
